Reference: US8247394B2 (Cempra Pharmaceuticals Inc., priority 2010, dated 2012)
Values after ≈ are worked out from the molar mass of the structure shown. Where two headings read alike, the source gives them in different places.

Legend:
C. trachomatis = experiment: In vitro susceptibility testing of C. trachomatis in cell culture using HEp-2 cells (MIC/MBC); format: cell-based, Chlamydia trachomatis; conditions: for MBC / MIC90 / MIC: Chlamydia trachomatis
Protocol: Chlamydia isolates: 10 isolates of C. trachomatis in order to determine the MIC90 and MBC90 for each antibiotic.
C. trachomatis: 10 isolates of C. trachomatis, including standard isolates from the ATCC (E-BOUR, F-IC-CAL3, C-HAR32, J-UW-36, L2434, D-UW-57kx, B-HAR-36) and recent clinical isolates N18 (cervical), N19 (cervical), 7015 (infant eye).
In vitro susceptibility testing: Susceptibility testing of C. trachomatis was performed in cell culture using HEp-2 cells grown in 96-well microtiter plates. Each well was inoculated with 0.1 ml of the test strain diluted to yield 10^3 to 10^4 IFU/per ml, centrifuged at 1,700×g for 1 hr and incubated at 35° C. for 1 hr. Wells were then aspirated and overlaid with 0.2 ml of medium containing 1 μg of cycloheximide per ml and serial two fold dilutions of the test drug. Duplicate plates were inoculated. After incubation at 35° C. for 48-72 hrs, cultures were fixed and stained for inclusions with fluorescein-conjugated antibody to the lipopolysaccharide genus antigen ([…]™, Kallestad Diagnostics, Chaska, Minn.). The minimal inhibitory concentration (MIC) was the lowest antibiotic concentration at which no inclusions are seen. The minimal bactericidal concentration (MBC) was determined by aspirating the antibiotic containing medium, washing wells twice with phosphate buffered saline and adding antibiotic-free medium. Cultures were frozen at −70° C., thawed, passed onto new cells, incubated for 72 hrs then fixed and stained as above. The MBC was the lowest antibiotic concentration that results in no inclusions after passage. All tests were run in triplicate.
Ten isolates of C. trachomatis including standard isolates from the ATCC (E-BOUR, F-IC-CAL3, C-HAR32, J-UW-36, L2434, D-UW-57kx, B-HAR-36) and recent clinical isolates N18 (cervical), N19 (cervical), 7015 (infant eye) were selected for study. Susceptibility testing was performed in cell culture using HEp-2 cells (Roblin et. al. Antimicrob. Agents Chemother. 42:194-196 (1998)) at State University of New York, Downstate Medical Center (Brooklyn, N.Y., USA).

[1] = blood; cited from earlier work
N. gonorrhoeae = experiment: Reference agar dilution susceptibility testing (CLSI M07-A8) of N. gonorrhoeae clinical isolates; format: cell-based, Neisseria gonorrhoeae; conditions: for % by category, R (resistant); resistance rate / % by category, S (susceptible): CLSI criteria, 35 strains
Protocol: Thirty-five clinical isolates of N. gonorrhoeae collected in the United States (USA), Asia and European medical centers since 2005 were tested using reference agar dilution methods per Clinical and Laboratory Standards Institute (CLSI) M07-A8 (Clinical and Laboratory Standards Institute. 2009. M07-A8, Methods for dilution antimicrobial susceptibility tests for bacteria that grow aerobically; approved standard—eighth edition. Wayne, Pa.: CLSI) and M100-S20 documents (Clinical and Laboratory Standards Institute. 2010. M100-S20, Performance standards for antimicrobial susceptibility testing, 20th informational supplement. Wayne, Pa.: CLSI). […] Quality control (QC) ranges and interpretive criteria for comparator compounds were as published by CLSI (Clinical and Laboratory Standards Institute. 2010. M100-S20, Performance standards for antimicrobial susceptibility testing, 20th informational supplement. Wayne, Pa.: CLSI).

[2] = 10 strains of C. trachomatis, read-out: MBC90
[3] = Neisseria gonorrhoeae, 35 N. gonorrhoeae strains, read-out: MIC50
[4] = number of isolates among 35 strains

CC(=O)O[C@H]1C[C@@]2(C)[C@@H](C[C@@H](O)[C@H]3[C@@]4(C)CC[C@@H](O)[C@@H](C)[C@@H]4CC[C@@]32C)/C1=C(\CCC=C(C)C)C(=O)O [Fusidic acid]
MBC Range (C. trachomatis; 10 strains): 0.12 to 0.5 µg/mL | MIC 90% (C. trachomatis; 10 strains): 0.5 µg/mL (≈ 0.968 µM) | MIC Range (C. trachomatis; 10 strains): 0.12 to 0.5 µg/mL | MIC range (C. trachomatis; 10 strains): 0.12 to 0.5 µg/mL | MBC (C. trachomatis; 10 strains, read-out: MBC 90%): 0.5 µg/mL (≈ 0.968 µM) | MIC90 (C. trachomatis; 10 strains of C. trachomatis): 0.5 µg/mL (≈ 0.968 µM) | MBC (C. trachomatis; [2]): 0.5 µg/mL (≈ 0.968 µM) | protein binding [1]: 95-97% | Occurrences at MIC 0.25 μg/ml (N. gonorrhoeae): 12 | Occurrences at MIC 0.5 μg/ml (N. gonorrhoeae): 17 | Occurrences at MIC 1 μg/ml (N. gonorrhoeae): 5 | Occurrences at MIC 2 μg/ml (N. gonorrhoeae): 1 | MIC90 (N. gonorrhoeae; Neisseria gonorrhoeae, 35 N. gonorrhoeae strains): 1 µg/mL (≈ 1.94 µM) | MIC50 (N. gonorrhoeae; [3]): 0.5 µg/mL (≈ 0.968 µM) | Concentration at which active against all strains tested (N. gonorrhoeae; all N. gonorrhoeae strains tested): ≤ 2 µg/mL

CC[C@H]1OC(=O)[C@H](C)[C@@H](O[C@H]2C[C@@](C)(OC)[C@@H](O)[C@H](C)O2)[C@H](C)[C@@H](O[C@@H]2O[C@H](C)C[C@H](N(C)C)[C@H]2O)[C@](C)(O)C[C@@H](C)CN(C)[C@H](C)[C@@H](O)[C@]1(C)O [Azithromycin, azithromycin]
MBC Range (C. trachomatis; 10 strains): 0.015 to 0.12 µg/mL | MIC 90% (C. trachomatis; 10 strains): 0.12 µg/mL (≈ 0.16 µM) | MIC Range (C. trachomatis; 10 strains): 0.015 to 0.12 µg/mL | MBC (C. trachomatis; 10 strains, read-out: MBC 90%): 0.12 µg/mL (≈ 0.16 µM) | MIC90 (C. trachomatis; 10 strains of C. trachomatis): 0.12 µg/mL (≈ 0.16 µM) | % by category, R (resistant); resistance rate (N. gonorrhoeae): 0.0% | MIC50 (N. gonorrhoeae; [3]): 0.25 µg/mL (≈ 0.334 µM) | Occurrences at MIC 0.06 μg/ml (N. gonorrhoeae; [4]): 1 | Occurrences at MIC 0.12 μg/ml (N. gonorrhoeae; [4]): 15 | Occurrences at MIC 0.25 μg/ml (N. gonorrhoeae; [4]): 12 | Occurrences at MIC 0.5 μg/ml (N. gonorrhoeae; [4]): 5 | Occurrences at MIC 1 μg/ml (N. gonorrhoeae; [4]): 1 | Occurrences at MIC 2 μg/ml (N. gonorrhoeae; [4]): 1

CC(=O)O[C@H]1C[C@@]2(C)[C@@H](C[C@@H](O)[C@H]3[C@@]4(C)CC[C@@H](O)[C@@H](C)[C@@H]4CC[C@@]32C)/C1=C(\CCC=C(C)C)C(=O)[O-].[Na+] [CEM 102, Sodium fusidate]
MIC (C. trachomatis; strain 7015): 0.5 µg/mL | MBC (C. trachomatis; strain 7015, read-out: MBC): 0.5 µg/mL | MIC (C. trachomatis; strain Ct D): 0.5 µg/mL | MBC (C. trachomatis; strain Ct D, read-out: MBC): 0.5 µg/mL | MIC (C. trachomatis; strain Ct E): 0.5 µg/mL | MBC (C. trachomatis; strain Ct E, read-out: MBC): 0.5 µg/mL | MIC (C. trachomatis; strain Ct F): 0.5 µg/mL | MBC (C. trachomatis; strain Ct F, read-out: MBC): 0.5 µg/mL | MIC (C. trachomatis; strain Ct H): 0.5 µg/mL | MBC (C. trachomatis; strain Ct H, read-out: MBC): 0.5 µg/mL | MIC (C. trachomatis; strain Ct I): 0.5 µg/mL | MBC (C. trachomatis; strain Ct I, read-out: MBC): 0.5 µg/mL | MIC (C. trachomatis; strain Ct J): 0.5 µg/mL | MBC (C. trachomatis; strain Ct J, read-out: MBC): 0.5 µg/mL | MIC (C. trachomatis; strain L2): 0.25 µg/mL | MBC (C. trachomatis; strain L2, read-out: MBC): 0.25 µg/mL | MIC (C. trachomatis; strain N18): 0.25 µg/mL | MBC (C. trachomatis; strain N18, read-out: MBC): 0.25 µg/mL | MIC (C. trachomatis; strain N19): 0.125 µg/mL | MBC (C. trachomatis; strain N19, read-out: MBC): 0.125 µg/mL | MIC90 (C. trachomatis; 10 strains of C. trachomatis): 0.5 µg/mL | MBC (C. trachomatis; [2]): 0.5 µg/mL

C[C@H]1c2cccc(O)c2C(=O)C2=C(O)[C@]3(O)C(=O)C(C(N)=O)=C(O)[C@@H](N(C)C)[C@@H]3[C@@H](O)[C@@H]21 [Doxycycline, doxycycline]
MBC Range (C. trachomatis; 10 strains): 0.015 to 0.06 µg/mL | MIC 90% (C. trachomatis; 10 strains): 0.06 µg/mL (≈ 0.135 µM) | MIC Range (C. trachomatis; 10 strains): 0.015 to 0.06 µg/mL | MBC (C. trachomatis; 10 strains, read-out: MBC 90%): 0.06 µg/mL (≈ 0.135 µM) | MIC90 (C. trachomatis; 10 strains of C. trachomatis): 0.06 µg/mL (≈ 0.135 µM)

CN(C)[C@@H]1C(O)=C(C(N)=O)C(=O)[C@@]2(O)C(O)=C3C(=O)c4c(O)cccc4[C@@](C)(O)[C@H]3C[C@@H]12 [Tetracycline, tetracycline]
% by category, R (resistant); resistance rate (N. gonorrhoeae): 34.3% | % by category, S (susceptible) (N. gonorrhoeae): 22.9% | MIC50 (N. gonorrhoeae; [3]): 1 µg/mL (≈ 2.25 µM) | Occurrences at MIC 0.12 μg/ml (N. gonorrhoeae; [4]): 6 | Occurrences at MIC 0.25 μg/ml (N. gonorrhoeae; [4]): 2 | Occurrences at MIC 0.5 μg/ml (N. gonorrhoeae; [4]): 8 | Occurrences at MIC 1 μg/ml (N. gonorrhoeae; [4]): 7 | Occurrences at MIC 2 μg/ml (N. gonorrhoeae; [4]): 7 | Occurrences at MIC 4 μg/ml (N. gonorrhoeae; [4]): 1 | Occurrences at MIC >4 μg/ml (N. gonorrhoeae; [4]): 4

CC[C@H]1OC(=O)[C@H](C)[C@@H](O[C@H]2C[C@@](C)(OC)[C@@H](O)[C@H](C)O2)[C@H](C)[C@@H](O[C@@H]2O[C@H](C)C[C@H](N(C)C)[C@H]2O)[C@](C)(OC)C[C@@H](C)C(=O)[C@H](C)[C@@H](O)[C@]1(C)O [Clarithromycin, clarithromycin]
MBC Range (C. trachomatis; 10 strains): 0.015 to 0.12 µg/mL | MIC 90% (C. trachomatis; 10 strains): 0.06 µg/mL (≈ 0.0802 µM) | MIC Range (C. trachomatis; 10 strains): 0.015 to 0.12 µg/mL | MBC (C. trachomatis; 10 strains, read-out: MBC 90%): 0.06 µg/mL (≈ 0.0802 µM) | MIC90 (C. trachomatis; 10 strains of C. trachomatis): 0.06 µg/mL (≈ 0.0802 µM)

penicillin
MIC50 (N. gonorrhoeae; 35 N. gonorrhoeae strains): 1 µg/mL | % by category, R (resistant); resistance rate (N. gonorrhoeae): 45.7% | % by category, S (susceptible) (N. gonorrhoeae): 22.9% | Occurrences at MIC 0.015 μg/ml (N. gonorrhoeae; [4]): 1 | Occurrences at MIC 0.03 μg/ml (N. gonorrhoeae; [4]): 4 | Occurrences at MIC 0.06 μg/ml (N. gonorrhoeae; [4]): 3 | Occurrences at MIC 0.25 μg/ml (N. gonorrhoeae; [4]): 2 | Occurrences at MIC 0.5 μg/ml (N. gonorrhoeae; [4]): 4 | Occurrences at MIC 1 μg/ml (N. gonorrhoeae; [4]): 5 | Occurrences at MIC 2 μg/ml (N. gonorrhoeae; [4]): 6 | Occurrences at MIC 4 μg/ml (N. gonorrhoeae; [4]): 4 | Occurrences at MIC >4 μg/ml (N. gonorrhoeae; [4]): 6

CO/N=C(\C(=O)N[C@@H]1C(=O)N2C(C(=O)O)=C(CSc3nc(=O)c(=O)[nH]n3C)CS[C@H]12)c1csc(N)n1 [Ceftriaxone, ceftriaxone]
% by category, R (resistant); resistance rate (N. gonorrhoeae): 0.0% | % by category, S (susceptible) (N. gonorrhoeae): 100.0/— % | Occurrences at MIC 0.015 μg/ml (N. gonorrhoeae; [4]): 6 | Occurrences at MIC 0.03 μg/ml (N. gonorrhoeae; [4]): 6 | Occurrences at MIC 0.06 μg/ml (N. gonorrhoeae; [4]): 3 | Occurrences at MIC 0.12 μg/ml (N. gonorrhoeae; [4]): 2 | Occurrences at MIC ≦0.008 μg/ml (N. gonorrhoeae; [4]): 18

CC[C@H]1OC(=O)[C@H](C)C(=O)[C@H](C)[C@@H](O[C@@H]2O[C@H](C)C[C@H](N(C)C)[C@H]2O)[C@](C)(OC)C[C@@H](C)C(=O)[C@H](C)[C@H]2N(CCCCn3cnc(-c4cccnc4)c3)C(=O)O[C@]12C [Telithromycin, telithromycin]
MBC Range (C. trachomatis; 10 strains): 0.015 to 0.25 µg/mL | MIC 90% (C. trachomatis; 10 strains): 0.06 µg/mL (≈ 0.0739 µM) | MIC Range (C. trachomatis; 10 strains): 0.015 to 0.25 µg/mL | MBC (C. trachomatis; 10 strains, read-out: MBC 90%): 0.06 µg/mL (≈ 0.0739 µM) | MIC90 (C. trachomatis; 10 strains of C. trachomatis): 0.06 µg/mL (≈ 0.0739 µM)
